One assay deals with T1, HMG CoA Reductase (Mus musculus, UniProt Q01237).
T1 construct: 10% homogenates of CF1 male mouse liver; from tissue; host or cells: CF1 male mouse liver, post-mitochondrial supernatant
T1 sequence (Q01237 1-887): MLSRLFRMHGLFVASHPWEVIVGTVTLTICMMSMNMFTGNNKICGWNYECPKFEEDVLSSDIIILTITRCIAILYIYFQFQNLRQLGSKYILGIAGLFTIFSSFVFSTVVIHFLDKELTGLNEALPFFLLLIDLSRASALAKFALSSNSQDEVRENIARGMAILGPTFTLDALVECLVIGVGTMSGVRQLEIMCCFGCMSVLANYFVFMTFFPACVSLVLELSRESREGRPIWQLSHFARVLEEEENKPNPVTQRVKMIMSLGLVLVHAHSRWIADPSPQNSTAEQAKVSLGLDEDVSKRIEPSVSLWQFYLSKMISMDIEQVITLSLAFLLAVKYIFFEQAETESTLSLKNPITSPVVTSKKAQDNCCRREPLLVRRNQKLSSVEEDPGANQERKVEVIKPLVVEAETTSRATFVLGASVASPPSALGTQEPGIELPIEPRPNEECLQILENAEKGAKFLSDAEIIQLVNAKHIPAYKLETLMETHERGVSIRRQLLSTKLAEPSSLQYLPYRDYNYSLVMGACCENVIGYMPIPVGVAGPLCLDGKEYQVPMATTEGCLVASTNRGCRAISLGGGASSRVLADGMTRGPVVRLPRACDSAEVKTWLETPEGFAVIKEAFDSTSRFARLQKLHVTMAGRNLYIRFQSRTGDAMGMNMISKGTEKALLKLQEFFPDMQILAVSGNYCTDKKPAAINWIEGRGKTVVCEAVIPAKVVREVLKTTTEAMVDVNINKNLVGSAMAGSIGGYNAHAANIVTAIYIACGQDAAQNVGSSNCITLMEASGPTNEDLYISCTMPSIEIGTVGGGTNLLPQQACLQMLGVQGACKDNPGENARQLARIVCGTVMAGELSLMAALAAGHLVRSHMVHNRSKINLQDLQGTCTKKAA
The assay can be described thus: In vitro liver enzyme study: HMG CoA reductase. In kind it is biochemical. The settings on record: in vitro CF1 liver. On the procedure:
(§1) In vitro enzymatic studies were determined using 10% homogenates of CF1 male mouse liver with 50-200 μM of test drugs. In vivo enzymatic studies were determined using 10% homogenates of liver from CF1 male mice obtained after administering the agents for 16 days at a dose ranging from 2.5-20 mg/kg/day intraperitoneally. The liver homogenates for both in vitro and in vivo studies were prepared in 0.25M sucrose and 0.001M (ethylenedinitrilo)tetraacetic acid. Acetyl coenzyme A synthetase and adenosine triphosphate dependent citrate lyase activities were determined spectrophotometrically at 540 nm as the hydroxylamate of acetyl coenzyme A formed after 30 min at 37° C. Mitochondrial citrate exchange was determined by the procedure of Robinson et al [Eur. J. Biochem., 216, 63 (1970)] using ^14 C-sodium bicarbonate (41 mCi/mmol) incorporated into mitochondrial ^14 C-citrate after isolating rat mitochondria (9000 g×10 min) from the homogenates. The exchanges of the ^14 C-citrate were determined after incubating the mitochondrial fraction which was loaded with labeled citrate and test drugs for 10 min. Then the radioactivity was measured in the mitochondrial and supernantant fractions in scintillation fluid and expressed as a percentage. Cholesterol side chain oxidation was determined by the method of Kritchevsky and Tepper [Artherosclerosis, 18, 93 (1973)] using (26-^14 C) cholesterol (50 mCi/mmol) and mitochondria isolated from rat liver homogenates. […] Fatty acid synthetase activity was determined by the method of Brady et al [J. Biol. Chem., 235, 3093 (1960)] using [2-^14 C] malonyl-coenzyme A (37.5 mCi/mmol) which was incorporated into newly synthesized fatty acids that were extracted with ether and counted. Acyl transferase activity was determined with glycerol-3phosphate [L-2-^3 H(N)] […] HCl and counted. Phosphatidate phosphohydrolase activity was measured as the inorganic phosphate released after 30 min from phosphatidic acid by the method of Mavis et al [J. Lipid Res., 19, 467 (1978)]. […]

The next assay has as its system Acetyl CoA synthetase. The assay can be described thus: In vitro liver enzyme study: acetyl CoA synthetase. It is filed as biochemical, mouse. The settings on record: in vitro CF1 liver, 30 min. On the procedure: as §1
The next assay deals with Holtzman male rats. Briefly: Antihyperlipidemic screen in normal rats. In kind it is in vivo, rat. On the procedure:
Compounds to be tested were suspended in 1% carboxymethylcellulose-water and administered to CF1 male mice (~25 g) intraperitoneally for 16 days or Holtzman male rats (~350 g) orally by an intubation needle for 16 days. On days 9 or 16, blood was obtained by tail vein bleeding and the serum separated by centrifugation for 3 min. The serum cholesterol levels were determined by a modification of the Liebermann-Burchard reaction as described in Ness et al, Clin. Chim. Acta, 10, 229 (1964). Serum was also collected on day 16 and the triglyceride content was determined by a commercial kit, The Fisher Hycel Triglyceride Test Kit.
Data are expressed in the Table 2-7 as percent of control ± the standard deviation. The probable significant level (P) between each test group and the control group was determined by the Student's "t" test.

For the next assay, the target named is T2, Fatty Acid Synthetase (Mus musculus, UniProt P19096).
T2 construct: 10% homogenates of CF1 male mouse liver; from tissue; host or cells: CF1 male mouse liver, 10% homogenate
T2 sequence (P19096 whole entry): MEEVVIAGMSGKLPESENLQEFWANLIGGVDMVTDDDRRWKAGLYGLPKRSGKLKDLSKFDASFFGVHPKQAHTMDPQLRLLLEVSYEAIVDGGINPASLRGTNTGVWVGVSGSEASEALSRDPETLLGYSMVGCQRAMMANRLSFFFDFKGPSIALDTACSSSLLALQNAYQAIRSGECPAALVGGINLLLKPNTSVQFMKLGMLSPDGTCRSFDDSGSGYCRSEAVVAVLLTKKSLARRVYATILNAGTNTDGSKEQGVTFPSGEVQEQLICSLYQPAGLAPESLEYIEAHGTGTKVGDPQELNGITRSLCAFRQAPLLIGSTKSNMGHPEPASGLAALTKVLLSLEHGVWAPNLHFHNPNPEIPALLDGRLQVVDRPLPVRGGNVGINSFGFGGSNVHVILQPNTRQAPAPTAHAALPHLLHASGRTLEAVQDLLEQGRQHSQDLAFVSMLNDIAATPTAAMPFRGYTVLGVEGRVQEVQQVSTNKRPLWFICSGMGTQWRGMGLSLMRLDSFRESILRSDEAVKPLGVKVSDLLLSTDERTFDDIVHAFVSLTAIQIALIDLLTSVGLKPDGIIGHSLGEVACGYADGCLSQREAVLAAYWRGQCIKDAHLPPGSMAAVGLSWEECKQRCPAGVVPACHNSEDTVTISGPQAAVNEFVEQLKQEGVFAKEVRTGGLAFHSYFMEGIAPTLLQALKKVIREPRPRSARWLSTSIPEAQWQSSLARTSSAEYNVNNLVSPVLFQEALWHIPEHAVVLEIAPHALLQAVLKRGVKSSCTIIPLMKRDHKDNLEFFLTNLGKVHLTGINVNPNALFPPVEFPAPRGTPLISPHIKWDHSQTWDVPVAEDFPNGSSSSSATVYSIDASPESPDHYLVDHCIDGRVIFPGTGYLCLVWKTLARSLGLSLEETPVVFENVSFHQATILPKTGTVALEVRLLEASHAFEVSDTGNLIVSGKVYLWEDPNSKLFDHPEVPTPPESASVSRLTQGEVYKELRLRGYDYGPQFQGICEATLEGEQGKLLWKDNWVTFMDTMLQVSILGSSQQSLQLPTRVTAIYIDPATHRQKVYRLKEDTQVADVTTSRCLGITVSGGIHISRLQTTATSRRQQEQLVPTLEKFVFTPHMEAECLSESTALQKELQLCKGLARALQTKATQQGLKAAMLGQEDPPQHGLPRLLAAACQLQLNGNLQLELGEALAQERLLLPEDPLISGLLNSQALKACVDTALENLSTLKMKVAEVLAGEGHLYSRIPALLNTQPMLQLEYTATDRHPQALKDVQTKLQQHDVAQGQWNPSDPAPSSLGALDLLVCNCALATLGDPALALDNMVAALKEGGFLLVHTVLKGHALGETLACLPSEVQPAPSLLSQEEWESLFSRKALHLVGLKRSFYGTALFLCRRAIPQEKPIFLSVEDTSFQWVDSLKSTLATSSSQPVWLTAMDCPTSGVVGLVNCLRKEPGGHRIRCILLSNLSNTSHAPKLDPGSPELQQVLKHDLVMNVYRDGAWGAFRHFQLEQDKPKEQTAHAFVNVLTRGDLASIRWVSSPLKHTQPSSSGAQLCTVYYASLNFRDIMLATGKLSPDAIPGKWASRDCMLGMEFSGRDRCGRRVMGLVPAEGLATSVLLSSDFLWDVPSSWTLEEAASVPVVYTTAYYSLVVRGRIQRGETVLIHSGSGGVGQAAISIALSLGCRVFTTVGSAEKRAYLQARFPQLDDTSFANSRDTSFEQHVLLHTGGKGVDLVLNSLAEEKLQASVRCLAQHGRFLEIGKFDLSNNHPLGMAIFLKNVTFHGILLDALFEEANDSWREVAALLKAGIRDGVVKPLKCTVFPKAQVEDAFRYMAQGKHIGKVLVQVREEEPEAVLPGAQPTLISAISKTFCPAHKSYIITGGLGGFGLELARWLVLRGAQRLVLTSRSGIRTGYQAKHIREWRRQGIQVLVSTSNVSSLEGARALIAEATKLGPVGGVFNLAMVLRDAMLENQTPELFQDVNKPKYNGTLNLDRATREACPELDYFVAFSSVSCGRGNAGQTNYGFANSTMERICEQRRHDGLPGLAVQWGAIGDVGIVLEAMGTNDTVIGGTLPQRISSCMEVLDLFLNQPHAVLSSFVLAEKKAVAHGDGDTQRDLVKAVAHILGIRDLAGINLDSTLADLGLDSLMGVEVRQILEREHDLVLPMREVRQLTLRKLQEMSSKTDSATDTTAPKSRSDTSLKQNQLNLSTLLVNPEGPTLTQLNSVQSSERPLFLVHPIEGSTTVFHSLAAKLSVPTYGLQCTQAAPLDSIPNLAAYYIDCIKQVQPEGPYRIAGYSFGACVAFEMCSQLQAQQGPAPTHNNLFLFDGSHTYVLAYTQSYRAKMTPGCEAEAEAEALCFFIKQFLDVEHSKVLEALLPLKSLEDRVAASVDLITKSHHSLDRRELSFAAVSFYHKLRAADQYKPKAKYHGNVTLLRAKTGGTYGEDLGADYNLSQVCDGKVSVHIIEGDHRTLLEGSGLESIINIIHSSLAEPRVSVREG
The assay can be described thus: In vivo liver enzyme study: fatty acid synthetase. The note with it: CF1 liver after 16 days i.p. On the procedure: as §1

Setting [1] is: rats orally, 10.0 mg/kg, Day 16.

Regarding “{Cu[(CH3)3 N.BH2 CO2 ]2.(CH3)3 N.BH2 COOH} [Compound I]”, the “HMG CoA Reductase” value on HMG CoA Reductase (50 μM) was found to be 102 ± 8 Percent Control; on HMG CoA Reductase (100 μM), 101 ± 9 Percent Control; on HMG CoA Reductase (200 μM), 105 ± 8 Percent Control. Also, the “Acetyl CoA synthetase” value in the assay with Acetyl CoA synthetase (50 μM) is listed as 104 ± 5 Percent Control; in the assay with Acetyl CoA synthetase (100 μM), 87 ± 4 Percent Control; in the assay with Acetyl CoA synthetase (200 μM), 84 ± 5 Percent Control. Further, the “Serum Cholesterol” value in the assay on Holtzman male rats (rats orally, 10.0 mg/kg, Day 9) was 63 ± 5 % Control; with Holtzman male rats (setting [1]) it was 65 ± 5 % Control. Moreover, the “Serum Triglyceride” value with Holtzman male rats (setting [1]) came to 36 ± 4 % Control. Moreover, the “Serum triglyceride levels reduced” value with Holtzman male rats (rats, 10 mg/kg/day) is on record as 64%. Moreover, the “reduction in serum cholesterol levels” value in the assay on Holtzman male rats (rats, 10 mg/kg/day) was found to be 37%. In addition, the results for the “Fatty Acid Synthetase” value on Fatty Acid Synthetase (2.5 mg/kg), at Fatty Acid Synthetase (5.0 mg/kg) and at Fatty Acid Synthetase (10 mg/kg) were 102 ± 7% of control, 90 ± 6% of control and 94 ± 5% of control, respectively.

For the origin of these results see patent publication US4550186A, “Binuclear copper (II) carboxylates formed from amine-carboxyboranes” (Duke University, priority 1983, dated 1985).
